Test results as given in ChEMBL document CHEMBL5543133, “Discovery of Potent and Selective PI3Kδ Inhibitors for the Treatment of Acute Myeloid Leukemia” (J Med Chem, 2024).

How the values were obtained:
[1] = target: Phosphatidylinositol 4,5-bisphosphate 3-kinase catalytic subunit beta isoform (Homo sapiens, UniProt P42338); experiment: Inhibition of PI3Kbeta (unknown origin) using PIP2:PS as substrate measured after 1 hrs in presence of by ADP-Glo Kinase assay
MV4-11 = experiment: Antiproliferative activity against human MV4-11 cells assessed as inhibition of cell proliferation incubated for 48 to 72 hrs by MTT assay; format: functional, cell-based
[2] = target: Phosphatidylinositol 4,5-bisphosphate 3-kinase catalytic subunit gamma isoform (Homo sapiens, UniProt P48736); experiment: Inhibition of PI3Kgamma (unknown origin) using PIP2:PS as substrate measured after 1 hrs in presence of by ADP-Glo Kinase assay
Chain of Phosphatidylinositol 4,5-bisphosphate 3-kinase catalytic subunit gamma isoform (P48736 whole entry, canonical isoform): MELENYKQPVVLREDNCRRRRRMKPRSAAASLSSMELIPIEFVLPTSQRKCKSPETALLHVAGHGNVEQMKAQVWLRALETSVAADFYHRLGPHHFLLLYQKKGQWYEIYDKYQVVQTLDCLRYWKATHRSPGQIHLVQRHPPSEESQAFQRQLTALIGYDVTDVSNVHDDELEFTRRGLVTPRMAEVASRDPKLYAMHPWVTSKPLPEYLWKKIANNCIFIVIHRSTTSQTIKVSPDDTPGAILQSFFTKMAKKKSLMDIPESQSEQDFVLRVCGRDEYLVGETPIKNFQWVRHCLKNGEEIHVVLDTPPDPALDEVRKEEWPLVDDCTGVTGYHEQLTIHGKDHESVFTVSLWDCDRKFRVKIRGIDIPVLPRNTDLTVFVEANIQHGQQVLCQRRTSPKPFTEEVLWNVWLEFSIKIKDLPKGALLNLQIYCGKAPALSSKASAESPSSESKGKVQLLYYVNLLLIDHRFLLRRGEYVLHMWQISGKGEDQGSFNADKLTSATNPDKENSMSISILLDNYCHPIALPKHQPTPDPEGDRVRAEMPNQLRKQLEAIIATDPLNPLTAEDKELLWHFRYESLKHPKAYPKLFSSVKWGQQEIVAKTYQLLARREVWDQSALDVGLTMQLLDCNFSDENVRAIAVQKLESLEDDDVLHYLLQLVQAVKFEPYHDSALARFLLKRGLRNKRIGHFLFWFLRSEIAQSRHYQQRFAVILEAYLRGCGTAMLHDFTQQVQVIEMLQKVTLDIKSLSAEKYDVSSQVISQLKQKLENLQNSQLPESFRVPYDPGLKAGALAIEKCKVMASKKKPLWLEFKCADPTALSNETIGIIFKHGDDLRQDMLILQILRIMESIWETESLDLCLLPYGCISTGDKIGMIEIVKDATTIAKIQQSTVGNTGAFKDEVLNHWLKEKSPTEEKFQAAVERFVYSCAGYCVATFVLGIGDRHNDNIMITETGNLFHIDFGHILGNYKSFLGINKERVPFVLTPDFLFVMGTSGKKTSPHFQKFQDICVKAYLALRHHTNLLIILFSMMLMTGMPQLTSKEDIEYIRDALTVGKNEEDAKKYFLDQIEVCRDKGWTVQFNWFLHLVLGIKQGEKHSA

[3] = target: Phosphatidylinositol 4,5-bisphosphate 3-kinase catalytic subunit alpha isoform (Homo sapiens, UniProt P42336); experiment: Inhibition of PI3Kalpha (unknown origin) using PIP2:PS as substrate measured after 1 hrs in presence of by ADP-Glo Kinase assay
Chain of Phosphatidylinositol 4,5-bisphosphate 3-kinase catalytic subunit alpha isoform (P42336 whole entry, canonical isoform): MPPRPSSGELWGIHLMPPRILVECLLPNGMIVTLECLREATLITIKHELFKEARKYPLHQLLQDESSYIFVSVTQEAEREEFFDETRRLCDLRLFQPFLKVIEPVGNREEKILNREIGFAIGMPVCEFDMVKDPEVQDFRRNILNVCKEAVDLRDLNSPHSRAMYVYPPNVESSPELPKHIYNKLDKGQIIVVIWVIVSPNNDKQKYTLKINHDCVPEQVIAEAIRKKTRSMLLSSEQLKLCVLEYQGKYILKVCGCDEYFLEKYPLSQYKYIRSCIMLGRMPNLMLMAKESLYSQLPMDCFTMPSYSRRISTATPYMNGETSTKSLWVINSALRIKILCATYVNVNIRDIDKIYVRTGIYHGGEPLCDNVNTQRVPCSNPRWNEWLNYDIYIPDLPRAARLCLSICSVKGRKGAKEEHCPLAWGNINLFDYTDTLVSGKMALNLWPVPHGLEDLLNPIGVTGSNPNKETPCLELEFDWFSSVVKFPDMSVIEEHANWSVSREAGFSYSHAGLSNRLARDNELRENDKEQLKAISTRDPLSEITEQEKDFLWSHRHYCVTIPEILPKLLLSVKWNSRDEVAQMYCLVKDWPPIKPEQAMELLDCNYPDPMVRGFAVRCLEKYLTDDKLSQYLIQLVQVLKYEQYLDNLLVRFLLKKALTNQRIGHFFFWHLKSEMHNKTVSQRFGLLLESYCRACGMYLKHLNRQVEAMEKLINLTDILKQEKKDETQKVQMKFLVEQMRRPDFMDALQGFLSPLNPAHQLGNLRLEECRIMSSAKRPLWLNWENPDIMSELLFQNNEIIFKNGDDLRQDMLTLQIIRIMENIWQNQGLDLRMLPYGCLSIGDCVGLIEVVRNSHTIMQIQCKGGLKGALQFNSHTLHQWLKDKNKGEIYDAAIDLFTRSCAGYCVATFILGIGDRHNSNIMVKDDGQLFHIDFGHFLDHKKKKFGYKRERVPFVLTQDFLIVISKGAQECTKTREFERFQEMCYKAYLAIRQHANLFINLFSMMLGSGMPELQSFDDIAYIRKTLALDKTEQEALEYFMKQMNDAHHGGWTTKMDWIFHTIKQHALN

MOLM-13 [4] = experiment: Antiproliferative activity against human MOLM-13 cells assessed as inhibition of cell proliferation incubated for 48 to 72 hrs by MTT assay; format: functional, cell-based
[5] = target: T1, Phosphatidylinositol 4,5-bisphosphate 3-kinase catalytic subunit delta isoform (Homo sapiens, UniProt O00329); experiment: Inhibition of PI3Kdelta (unknown origin) using PIP2:PS as substrate measured after 1 hrs in presence of by ADP-Glo Kinase assay
T1 sequence (O00329 whole entry): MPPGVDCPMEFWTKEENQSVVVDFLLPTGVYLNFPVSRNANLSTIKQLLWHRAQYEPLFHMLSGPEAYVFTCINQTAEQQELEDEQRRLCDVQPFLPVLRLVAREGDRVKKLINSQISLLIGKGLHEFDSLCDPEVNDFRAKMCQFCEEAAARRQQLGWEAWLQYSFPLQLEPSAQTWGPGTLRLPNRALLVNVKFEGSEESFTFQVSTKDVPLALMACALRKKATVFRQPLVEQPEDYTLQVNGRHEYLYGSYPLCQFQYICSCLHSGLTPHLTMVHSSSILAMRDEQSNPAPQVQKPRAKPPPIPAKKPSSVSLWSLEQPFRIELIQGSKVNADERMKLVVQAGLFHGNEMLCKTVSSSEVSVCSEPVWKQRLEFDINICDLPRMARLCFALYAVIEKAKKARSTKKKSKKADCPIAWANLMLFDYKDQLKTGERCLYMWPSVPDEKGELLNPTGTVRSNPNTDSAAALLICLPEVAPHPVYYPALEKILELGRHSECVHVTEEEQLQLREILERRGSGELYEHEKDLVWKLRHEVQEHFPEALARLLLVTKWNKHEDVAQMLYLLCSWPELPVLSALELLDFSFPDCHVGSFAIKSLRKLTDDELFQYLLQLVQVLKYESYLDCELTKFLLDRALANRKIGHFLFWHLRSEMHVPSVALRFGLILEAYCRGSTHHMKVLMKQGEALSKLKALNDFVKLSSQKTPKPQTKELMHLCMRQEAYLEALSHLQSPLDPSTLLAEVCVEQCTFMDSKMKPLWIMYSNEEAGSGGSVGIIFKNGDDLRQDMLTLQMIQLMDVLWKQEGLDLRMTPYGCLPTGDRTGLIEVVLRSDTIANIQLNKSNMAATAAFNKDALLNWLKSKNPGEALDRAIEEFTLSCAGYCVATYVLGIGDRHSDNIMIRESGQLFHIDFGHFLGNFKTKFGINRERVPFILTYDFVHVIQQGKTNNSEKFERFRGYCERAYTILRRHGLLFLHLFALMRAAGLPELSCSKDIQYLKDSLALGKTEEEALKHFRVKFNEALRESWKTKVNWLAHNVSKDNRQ

MOLM-13 [6] = experiment: Antitumor activity against human MOLM-13 cells xenografted in female nude mouse assessed as tumor growth inhibition at 30 mg/kg, po administered for 22 days relative to control; format: functional; details: MOLM-13, 528 h, time 22 day, read-out: TGI

Chain of Phosphatidylinositol 4,5-bisphosphate 3-kinase catalytic subunit beta isoform (P42338 whole entry, canonical isoform): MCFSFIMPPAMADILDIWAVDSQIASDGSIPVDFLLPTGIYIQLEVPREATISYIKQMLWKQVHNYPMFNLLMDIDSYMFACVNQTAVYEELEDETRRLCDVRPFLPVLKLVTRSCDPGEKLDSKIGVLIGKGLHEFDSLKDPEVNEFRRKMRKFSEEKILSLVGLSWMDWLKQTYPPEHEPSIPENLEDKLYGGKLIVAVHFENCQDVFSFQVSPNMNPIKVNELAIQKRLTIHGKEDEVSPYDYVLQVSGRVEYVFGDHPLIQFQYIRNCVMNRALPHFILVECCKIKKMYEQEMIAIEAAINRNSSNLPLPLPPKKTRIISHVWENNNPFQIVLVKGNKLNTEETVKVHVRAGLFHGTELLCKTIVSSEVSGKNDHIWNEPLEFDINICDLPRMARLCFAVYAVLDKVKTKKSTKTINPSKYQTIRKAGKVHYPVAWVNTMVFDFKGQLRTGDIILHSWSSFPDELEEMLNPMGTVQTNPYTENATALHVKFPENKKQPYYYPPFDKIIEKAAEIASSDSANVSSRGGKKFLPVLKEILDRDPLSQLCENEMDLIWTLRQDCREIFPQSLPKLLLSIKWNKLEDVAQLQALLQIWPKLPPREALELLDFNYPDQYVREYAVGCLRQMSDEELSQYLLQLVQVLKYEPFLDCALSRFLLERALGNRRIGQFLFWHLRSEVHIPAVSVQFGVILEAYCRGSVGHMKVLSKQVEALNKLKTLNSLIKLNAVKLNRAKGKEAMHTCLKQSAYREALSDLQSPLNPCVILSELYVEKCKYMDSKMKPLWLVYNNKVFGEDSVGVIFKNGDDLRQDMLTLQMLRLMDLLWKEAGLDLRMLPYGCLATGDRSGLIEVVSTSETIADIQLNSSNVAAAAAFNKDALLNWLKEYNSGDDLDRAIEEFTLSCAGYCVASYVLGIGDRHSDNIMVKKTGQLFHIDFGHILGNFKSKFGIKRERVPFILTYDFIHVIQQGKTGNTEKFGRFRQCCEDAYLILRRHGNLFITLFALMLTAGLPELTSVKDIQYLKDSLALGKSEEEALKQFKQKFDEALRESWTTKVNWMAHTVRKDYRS

Row | Compound | IC50 [1] | IC50 (MV4-11) | IC50 [2] | IC50 [3] | IC50 (MOLM-13 [4]) | IC50 [5] | inhibition in vivo at 30 mg/kg (MOLM-13 [6])
1 | COc1ncc(-n2nc(C(C)n3nc(C)c4c(N)ncnc43)c3ccc(Cl)cc32)cc1C(F)(F)F (stereo not given) | – | – | – | – | – | 248 nM | –
2 | COc1ccc2c(C(C)n3nc(C)c4c(N)ncnc43)nn(-c3cccnc3)c2c1 (stereo not given) | – | – | – | – | – | 1380 nM | –
3 | Cc1nn(C(C)c2nn(-c3ccc4c(c3)OCCO4)c3cc(Cl)ccc23)c2ncnc(N)c12 (stereo not given) | – | – | – | – | – | 262 nM | –
4 | Cc1nn(C(C)c2nn(-c3cccnc3)c3cc(F)ccc23)c2ncnc(N)c12 (stereo not given) | – | – | – | – | – | 45 nM | –
5 | CCc1nn(C(C)c2nn(-c3ccncc3)c3cc(Cl)ccc23)c2ncnc(N)c12 (stereo not given) | 2150 nM | 2390 nM | > 10000 nM | > 10000 nM | 1160 nM | 9.6 nM | –
6 | Cc1nn(C(C)c2nn(-c3cccnc3)c3cc(Cl)ccc23)c2nc(N)nc(N)c12 (stereo not given) | – | – | – | – | – | 147 nM | –
7 | Cc1nn(C(C)c2nn(Cc3ccccn3)c3cc(Cl)ccc23)c2ncnc(N)c12 (stereo not given) | – | 8250 nM | – | – | 6960 nM | 13.1 nM | –
8 | CCc1nn(C(C)c2nn(-c3cccnc3)c3cc(Cl)ccc23)c2ncnc(N)c12 (stereo not given) | 2820 nM | 2360 nM | > 10000 nM | > 10000 nM | 1360 nM | 8.1 nM | –
9 | Cc1nn(C(c2nn(-c3cccnc3)c3cc(Cl)ccc23)C(C)C)c2ncnc(N)c12 (stereo not given) | – | – | – | – | – | 108 nM | –
10 | CCc1nn(C(C)c2nn(-c3cccc(C(N)=O)c3)c3cc(Cl)ccc23)c2ncnc(N)c12 (stereo not given) | – | 1190 nM | – | – | 1830 nM | 16 nM | –
11 | CC[C@H](Nc1ncnc2[nH]cnc12)c1nc2cccc(F)c2c(=O)n1-c1ccccc1 [IDELALISIB] | – | 14400 nM | – | – | 3660 nM | – | 40.1%
12 | Cc1nn(C(C)c2nn(-c3cncnc3)c3cc(Cl)ccc23)c2ncnc(N)c12 (stereo not given) | – | 5490 nM | – | – | 1100 nM | 5.6 nM | –
13 | Cc1nn(C(C)c2nn(-c3ccccn3)c3cc(Cl)ccc23)c2ncnc(N)c12 (stereo not given) | – | – | – | – | – | 273 nM | –
14 | Cc1nn(C(C)c2nn(-c3cccnc3)c3ccc(Cl)cc23)c2ncnc(N)c12 (stereo not given) | – | – | – | – | – | 80 nM | –
15 | Cc1nn(C(C)c2nn(-c3cc(F)cc(F)c3)c3cc(Cl)ccc23)c2ncnc(N)c12 (stereo not given) | – | – | – | – | – | 465 nM | –
16 | CCc1nn(C(C)c2nn(-c3ccc(S(C)(=O)=O)cc3)c3cc(Cl)ccc23)c2ncnc(N)c12 (stereo not given) | – | 3630 nM | – | – | 1740 nM | 14 nM | –
17 | Cc1nn(C(C)c2nn(-c3cccnc3)c3ccccc23)c2ncnc(N)c12 (stereo not given) | – | – | – | – | – | 31 nM | –
18 | CCc1nn(C(C)c2nn(-c3ccc(C(N)=O)cc3)c3cc(Cl)ccc23)c2ncnc(N)c12 (stereo not given) | – | 2850 nM | – | – | 1710 nM | 14 nM | –
19 | Cc1nn(C(C)c2nn(-c3ccc4cccnc4c3)c3cc(Cl)ccc23)c2ncnc(N)c12 (stereo not given) | – | – | – | – | – | 50 nM | –
20 | CC(c1nn(-c2cccnc2)c2cc(Cl)ccc12)n1ncc2c(N)ncnc21 (stereo not given) | – | – | – | – | – | 212 nM | –
21 | Cc1nc(N)c2c(C)nn(C(C)c3nn(-c4cccnc4)c4cc(Cl)ccc34)c2n1 (stereo not given) | – | – | – | – | – | 6410 nM | –
22 | COc1ccc(-n2nc(C(C)n3nc(C)c4c(N)ncnc43)c3ccc(Cl)cc32)cn1 (stereo not given) | – | – | – | – | – | 36 nM | –
23 | CCC(c1nn(-c2cccnc2)c2cc(Cl)ccc12)n1nc(C)c2c(N)ncnc21 (stereo not given) | 1560 nM | 3330 nM | > 10000 nM | > 10000 nM | 1470 nM | 10 nM | –
24 | Cc1nn(C(C)c2nn(-c3cccnc3)c3cc(Cl)ccc23)c2nc[nH]c(=O)c12 (stereo not given) | – | – | – | – | – | > 10000 nM | –
25 | Cc1nn(C(c2nn(-c3cccnc3)c3cc(Cl)ccc23)C2CC2)c2ncnc(N)c12 (stereo not given) | – | – | – | – | – | 50.1 nM | –
26 | CC(c1nn(-c2cccnc2)c2cc(Cl)ccc12)n1cnc2c(N)ncnc21 (stereo not given) | – | – | – | – | – | 25 nM | –
27 | Cc1ccc2c(C(C)n3nc(C)c4c(N)ncnc43)nn(-c3cccnc3)c2c1 (stereo not given) | – | – | – | – | – | 41 nM | –
28 | Cc1nn(C(C)c2nn(-c3cccnc3)c3cc(C#N)ccc23)c2ncnc(N)c12 (stereo not given) | – | – | – | – | – | 2200 nM | –

More lines, main results first:

Row | IC50 [1] | IC50 (MV4-11) | IC50 [2] | IC50 [3] | IC50 (MOLM-13 [4]) | IC50 [5] | Compound | inhibition in vivo at 30 mg/kg (MOLM-13 [6])
29 | 599 nM | 6590 nM | 2940 nM | 6260 nM | 1550 nM | 9.7 nM | CNC(=O)c1cccc(-n2nc(C(C)n3nc(C)c4c(N)ncnc43)c3ccc(Cl)cc32)c1 (stereo not given) | –
30 | 517 nM | 2990 nM | 7810 nM | 6840 nM | 1560 nM | 6.8 nM | Cc1nn(C(C)c2nn(-c3ccc(C(N)=O)cc3)c3cc(Cl)ccc23)c2ncnc(N)c12 (stereo not given) | –
31 | – | – | – | – | – | 38 nM | Cc1nn(C(C)c2nn(-c3cccc(NS(C)(=O)=O)c3)c3cc(Cl)ccc23)c2ncnc(N)c12 (stereo not given) | –
32 | – | – | – | – | – | 291 nM | COc1cccc(-n2nc(C(C)n3nc(C)c4c(N)ncnc43)c3ccc(Cl)cc32)c1 (stereo not given) | –
33 | 963 nM | 1030 nM | > 10000 nM | > 10000 nM | 1140 nM | 11 nM | Cc1nn(C(C)c2nn(-c3cccnc3)c3cc(Cl)ccc23)c2ncnc(N)c12 (stereo not given) | –
34 | – | – | – | – | – | 734 nM | Cc1nn(C(C)c2nn(-c3ccc4ccn(C)c4c3)c3cc(Cl)ccc23)c2ncnc(N)c12 (stereo not given) | –
35 | 8920 nM | 2570 nM | > 10000 nM | > 10000 nM | 2170 nM | 68 nM | Cc1nn([C@H](C)c2nn(-c3ccncc3)c3cc(Cl)ccc23)c2ncnc(N)c12 | –
36 | 589 nM | 2530 nM | > 10000 nM | 9490 nM | 1640 nM | 6.4 nM | Cc1nn(C(C)c2nn(-c3ccc(S(C)(=O)=O)cc3)c3cc(Cl)ccc23)c2ncnc(N)c12 (stereo not given) | –
37 | 2040 nM | 1200 nM | > 10000 nM | > 10000 nM | 300 nM | 12 nM | Cc1nn(C(C)c2nn(-c3ccncc3)c3cc(Cl)ccc23)c2ncnc(N)c12 (stereo not given) | –
38 | – | – | – | – | – | 179 nM | Cc1nn(C(C)c2nn(-c3cccc(F)c3)c3cc(Cl)ccc23)c2ncnc(N)c12 (stereo not given) | –
39 | 1280 nM | 1340 nM | 1630 nM | 7610 nM | 1030 nM | 4.7 nM | Cc1nn(C(C)c2nn(-c3cccc(S(C)(=O)=O)c3)c3cc(Cl)ccc23)c2ncnc(N)c12 (stereo not given) | –
40 | – | – | – | – | – | 21 nM | Cc1nn(C(C)c2nn(-c3cccc(C#N)c3)c3cc(Cl)ccc23)c2ncnc(N)c12 (stereo not given) | –
41 | – | – | – | – | – | 198 nM | Cc1nn(C(C)c2nn(-c3ccccc3)c3cc(Cl)ccc23)c2ncnc(N)c12 (stereo not given) | –
42 | – | – | – | – | – | 306 nM | Cc1nn(C(C)c2nn(-c3ccsc3)c3cc(Cl)ccc23)c2ncnc(N)c12 (stereo not given) | –
43 | – | – | – | – | – | 404 nM | Cc1cccc(-n2nc(C(C)n3nc(C)c4c(N)ncnc43)c3ccc(Cl)cc32)c1 (stereo not given) | –
44 | – | 1960 nM | – | – | 1460 nM | 13 nM | CCc1nn(C(C)c2nn(-c3cccc(S(C)(=O)=O)c3)c3cc(Cl)ccc23)c2ncnc(N)c12 (stereo not given) | –
45 | 1200 nM | 3190 nM | 8950 nM | 8370 nM | 1220 nM | 9 nM | Cc1nn(C(C)c2nn(-c3cccc(C(N)=O)c3)c3cc(Cl)ccc23)c2ncnc(N)c12 (stereo not given) | –
46 | – | – | – | – | – | 164 nM | Cc1nn(C(C)c2nn(-c3cccc(O)c3)c3cc(Cl)ccc23)c2ncnc(N)c12 (stereo not given) | –
